Reference: article PMC5218480 (PLoS ONE, 2017)

System: MV-4-11 cells
Assay: Gene expression microarray analysis (Affymetrix PrimeView) and GSEA
Assay type: cell-based, human
Set-up: RFU PODN (11730768_x_at) / Fold change /veh PODN (11730768_x_at) / RFU LINC00158 (11744669_a_at) / Fold change /veh LINC00158 (11744669_a_at) / RFU DUSP10 (11751237_a_at) / Fold change /veh DUSP10 (11751237_a_at) / RFU ID3 (11757404_x_at) / Fold change /veh ID3 (11757404_x_at) / RFU PLEKHG5 (11737974_s_at) / Fold change /veh PLEKHG5 (11737974_s_at) / RFU LRRC4B (11730491_at) / Fold change /veh LRRC4B (11730491_at) / RFU GIMAP4 (11747438_a_at) / Fold change /veh GIMAP4 (11747438_a_at) / RFU KRT8 (11758183_x_at) / Fold change /veh KRT8 (11758183_x_at) / RFU CNN1 (11734310_a_at) / Fold change /veh CNN1 (11734310_a_at) / RFU VPS37D (11726825_at) / Fold change /veh VPS37D (11726825_at) / RFU C10orf10 (11716522_x_at) / Fold change /veh C10orf10 (11716522_x_at) / RFU KIR2DL2 /// KIR2DL4 /// KIR2DL5A /// KIR2DL5B /// KIR2DS1 /// KIR2DS2 /// KIR2DS3 /// KIR2DS4 /// KIR3DL3 /// KIR3DL3 /// KIR3DS1 (11738374_at) / Fold change /veh KIR2DL2 /// KIR2DL4 /// KIR2DL5A /// KIR2DL5B /// KIR2DS1 /// KIR2DS2 /// KIR2DS3 /// KIR2DS4 /// KIR3DL3 /// KIR3DL3 /// KIR3DS1 (11738374_at) / RFU C1QL1 (11718748_at) / Fold change /veh C1QL1 (11718748_at) / RFU TMPRSS4 (11747572_a_at) / Fold change /veh TMPRSS4 (11747572_a_at) / RFU HAMP (11756126_x_at) / Fold change /veh HAMP (11756126_x_at) / RFU RNFT2 (11725882_a_at) / Fold change /veh RNFT2 (11725882_a_at) / RFU NR4A2 (11747474_a_at) / Fold change /veh NR4A2 (11747474_a_at) / RFU ABCC12 (11746883_a_at) / Fold change /veh ABCC12 (11746883_a_at) / RFU TMEM136 (11760407_x_at) / Fold change /veh TMEM136 (11760407_x_at) / RFU CLDN22 /// WWC2 (11732394_at) / Fold change /veh CLDN22 /// WWC2 (11732394_at) / RFU HLA-DPB1 (11760878_x_at) / Fold change /veh HLA-DPB1 (11760878_x_at) / RFU SPINT1 (11716480_a_at) / Fold change /veh SPINT1 (11716480_a_at) / RFU GAP43 (11754022_s_at) / Fold change /veh GAP43 (11754022_s_at) / RFU A4GNT (11735810_at) / Fold change /veh A4GNT (11735810_at) / RFU PRB3 (11715151_x_at) / Fold change /veh PRB3 (11715151_x_at) / RFU TUBB4B (11761932_at) / Fold change /veh TUBB4B (11761932_at) / RFU CAPN14 (11732068_a_at) / Fold change /veh CAPN14 (11732068_a_at) / RFU TMCC2 (11721928_a_at) / Fold change /veh TMCC2 (11721928_a_at) / RFU IRGQ (11745062_a_at) / Fold change /veh IRGQ (11745062_a_at) / RFU FAM174B (11720279_a_at) / Fold change /veh FAM174B (11720279_a_at) / RFU TMPRSS4 (11748680_a_at) / Fold change /veh TMPRSS4 (11748680_a_at) / RFU FAM212B (11763350_a_at) / Fold change /veh FAM212B (11763350_a_at) / RFU PLEKHG5 (11743358_a_at) / Fold change /veh PLEKHG5 (11743358_a_at) / RFU ZSCAN30 (11745921_a_at) / Fold change /veh ZSCAN30 (11745921_a_at) / RFU CMKLR1 (11741424_a_at) / Fold change /veh CMKLR1 (11741424_a_at) / RFU LOC101060620 /// MAPK8IP1 (11723275_at) / Fold change /veh LOC101060620 /// MAPK8IP1 (11723275_at) / RFU SPTSSB (11747773_x_at) / Fold change /veh SPTSSB (11747773_x_at) / RFU PRSS12 (11739890_at) / Fold change /veh PRSS12 (11739890_at) / RFU BIN1 (11741810_x_at) / Fold change /veh BIN1 (11741810_x_at) / RFU WNT11 (11732464_a_at) / Fold change /veh WNT11 (11732464_a_at) / RFU C10orf10 (11716521_a_at) / Fold change /veh C10orf10 (11716521_a_at) / RFU C5orf56 (11738089_at) / Fold change /veh C5orf56 (11738089_at) / RFU CYB561 (11721691_x_at) / Fold change /veh CYB561 (11721691_x_at) / RFU ANKRD19P (11752326_a_at) / Fold change /veh ANKRD19P (11752326_a_at) / RFU OR2T12 /// OR2T33 /// OR2T8 (11738714_s_at) / Fold change /veh OR2T12 /// OR2T33 /// OR2T8 (11738714_s_at) / RFU VCAN (11748164_a_at) / Fold change /veh VCAN (11748164_a_at) / RFU JSRP1 (11732532_at) / Fold change /veh JSRP1 (11732532_at) / RFU KRTAP10-11 (11738290_x_at) / Fold change /veh KRTAP10-11 (11738290_x_at) / RFU MYO3A (11730013_a_at) / Fold change /veh MYO3A (11730013_a_at) / RFU EBF3 (11725865_a_at) / Fold change /veh EBF3 (11725865_a_at) / RFU CAMK2N1 (11719241_x_at) / Fold change /veh CAMK2N1 (11719241_x_at) / RFU C5orf56 (11738088_a_at) / Fold change /veh C5orf56 (11738088_a_at) / RFU OLFML3 (11715873_a_at) / Fold change /veh OLFML3 (11715873_a_at) / RFU LOC100653217 /// NTM (11731650_a_at) / Fold change /veh LOC100653217 /// NTM (11731650_a_at) / RFU MAPK11 (11762145_a_at) / Fold change /veh MAPK11 (11762145_a_at) / RFU FIZ1 (11724087_x_at) / Fold change /veh FIZ1 (11724087_x_at) / RFU OASL (11726364_x_at) / Fold change /veh OASL (11726364_x_at) / RFU SOX15 (11748057_x_at) / Fold change /veh SOX15 (11748057_x_at) / RFU CD79A (11719716_a_at) / Fold change /veh CD79A (11719716_a_at) / RFU HIST1H1D (11736915_at) / Fold change /veh HIST1H1D (11736915_at) / RFU CASKIN2 (11723855_a_at) / Fold change /veh CASKIN2 (11723855_a_at) / RFU LOC730098 (11760151_x_at) / Fold change /veh LOC730098 (11760151_x_at) / RFU OR4N2 (11742367_at) / Fold change /veh OR4N2 (11742367_at) / RFU PRRT2 (11749266_a_at) / Fold change /veh PRRT2 (11749266_a_at) / RFU SNX32 (11753110_a_at) / Fold change /veh SNX32 (11753110_a_at) / RFU CDHR5 (11726645_a_at) / Fold change /veh CDHR5 (11726645_a_at) / RFU RCAN1 (11760418_a_at) / Fold change /veh RCAN1 (11760418_a_at) / RFU FAM167A (11723789_a_at) / Fold change /veh FAM167A (11723789_a_at) / RFU FAM26E (11764081_at) / Fold change /veh FAM26E (11764081_at) / RFU ISYNA1 (11749810_s_at) / Fold change /veh ISYNA1 (11749810_s_at) / RFU ACY1 (11761880_at) / Fold change /veh ACY1 (11761880_at) / RFU 11764098_at / Fold change /veh 11764098_at / RFU SAMD14 (11745864_x_at) / Fold change /veh SAMD14 (11745864_x_at) / RFU NPB (11741838_a_at) / Fold change /veh NPB (11741838_a_at) / RFU TMPRSS6 (11731388_a_at) / Fold change /veh TMPRSS6 (11731388_a_at) / RFU KRTAP10-2 (11738614_at) / Fold change /veh KRTAP10-2 (11738614_at) / RFU ARHGAP8 /// PRR5-ARHGAP8 (11727945_x_at) / Fold change /veh ARHGAP8 /// PRR5-ARHGAP8 (11727945_x_at) / RFU KRTAP5-7 /// NADSYN1 (11734609_at) / Fold change /veh KRTAP5-7 /// NADSYN1 (11734609_at) / RFU RASL12 (11751679_a_at) / Fold change /veh RASL12 (11751679_a_at) / RFU CDKN2B (11736163_a_at) / Fold change /veh CDKN2B (11736163_a_at) / RFU PRF1 (11729649_at) / Fold change /veh PRF1 (11729649_at) / RFU, ZNF638 /// ZNF638-IT1 / Fold change vs veh, ZNF638 /// ZNF638-IT1 / RFU, PANK3 / Fold change vs veh, PANK3 / RFU, SH3YL1 / Fold change vs veh, SH3YL1 / RFU, ZEB2 / Fold change vs veh, ZEB2 / RFU, NRIP1 / Fold change vs veh, NRIP1 / RFU, PTTG1IP / Fold change vs veh, PTTG1IP / RFU, CAPN2 / Fold change vs veh, CAPN2 / RFU, MED14 / Fold change vs veh, MED14 / RFU, SNORA58 / Fold change vs veh, SNORA58 / RFU, C1orf63 / Fold change vs veh, C1orf63 / RFU, LRRFIP1 / Fold change vs veh, LRRFIP1 / RFU, NDUFAF7 / Fold change vs veh, NDUFAF7 / RFU, SLC12A2 / Fold change vs veh, SLC12A2 / RFU, IBTK / Fold change vs veh, IBTK / RFU, ESF1 / Fold change vs veh, ESF1 / Fold change vs veh, TMEM50B / RFU, TAOK1 / Fold change vs veh, TAOK1 / RFU, ACBD3 / Fold change vs veh, ACBD3 / RFU, TMA16 / Fold change vs veh, TMA16 / RFU, RWDD3 / Fold change vs veh, RWDD3 / RFU, BCAT1 / Fold change vs veh, BCAT1 / RFU, EDEM3 / Fold change vs veh, EDEM3 / RFU, TMEM33 / Fold change vs veh, TMEM33 / RFU, WDR75 / Fold change vs veh, WDR75 / RFU, AHCTF1 / Fold change vs veh, AHCTF1 / RFU, TFRC / Fold change vs veh, TFRC / RFU, ZDHHC17 / Fold change vs veh, ZDHHC17 / RFU, NOM1 / Fold change vs veh, NOM1 / RFU, ARL8B / Fold change vs veh, ARL8B / RFU, ZBTB11 / Fold change vs veh, ZBTB11 / RFU, TAMM41 / Fold change vs veh, TAMM41 / RFU, KIAA1704 /// LOC100996395 / Fold change vs veh, KIAA1704 /// LOC100996395 / RFU, ING1 / Fold change vs veh, ING1 / RFU, TRMT61B / Fold change vs veh, TRMT61B / RFU, FUBP3 / Fold change vs veh, FUBP3 / RFU, TP53 / Fold change vs veh, TP53 / RFU, TNKS2 / Fold change vs veh, TNKS2 / RFU, ZFP14 / Fold change vs veh, ZFP14 / RFU, ACTR2 / Fold change vs veh, ACTR2 / RFU, PPP3R1 / Fold change vs veh, PPP3R1 / RFU, PIK3R1 / Fold change vs veh, PIK3R1 / RFU, HNRNPA1 / Fold change vs veh, HNRNPA1 / RFU, RNF170 / Fold change vs veh, RNF170 / RFU, ZNF28 / Fold change vs veh, ZNF28 / RFU, RNGTT / Fold change vs veh, RNGTT / RFU, OGT / Fold change vs veh, OGT / RFU, BRD1 / Fold change vs veh, BRD1 / RFU, MARS / Fold change vs veh, MARS / RFU, ZNF655 / Fold change vs veh, ZNF655 / RFU, FAHD1 / Fold change vs veh, FAHD1 / RFU, BDP1 / Fold change vs veh, BDP1 / RFU, LRRCC1 / Fold change vs veh, LRRCC1 / RFU, ARID1A / Fold change vs veh, ARID1A / RFU, ZNF146 / Fold change vs veh, ZNF146 / RFU, ZNF330 / Fold change vs veh, ZNF330 / RFU, GPN3 / Fold change vs veh, GPN3 / RFU, C9orf123 / Fold change vs veh, C9orf123 / RFU, N4BP2L2 / Fold change vs veh, N4BP2L2 / RFU, ARFIP1 / Fold change vs veh, ARFIP1 / RFU, FAM179B / Fold change vs veh, FAM179B / RFU, BCL10 / Fold change vs veh, BCL10 / RFU, UHRF1BP1L / Fold change vs veh, UHRF1BP1L / RFU, BET1 / Fold change vs veh, BET1 / RFU, CNOT2 / Fold change vs veh, CNOT2 / RFU, ZNF268 / Fold change vs veh, ZNF268 / Fold change vs veh, ZNF507 / RFU, DGCR2 / Fold change vs veh, DGCR2 / RFU, WDSUB1 / Fold change vs veh, WDSUB1 / Fold change vs veh, HSP90B1 /// MIR3652 / RFU, ADSS / Fold change vs veh, ADSS / RFU, GK / Fold change vs veh, GK / RFU, ZNF148 / Fold change vs veh, ZNF148 / RFU, TAF9 / Fold change vs veh, TAF9 / RFU, SLC1A5 / Fold change vs veh, SLC1A5 / RFU, SLMO2 / Fold change vs veh, SLMO2 / RFU, ABCC4 / Fold change vs veh, ABCC4 / RFU, LOC101060439 /// RAP1B / Fold change vs veh, LOC101060439 /// RAP1B / RFU, RFX7 / Fold change vs veh, RFX7 / RFU, GTPBP10 / Fold change vs veh, GTPBP10 / RFU, CNEP1R1 / Fold change vs veh, CNEP1R1 / RFU, BIVM-ERCC5 /// ERCC5 / Fold change vs veh, BIVM-ERCC5 /// ERCC5 / RFU, ILF3 / Fold change vs veh, ILF3 / RFU 11762660_at / Fold change /veh 11762660_at / RFU VCAN (11757783_s_at) / Fold change /veh VCAN (11757783_s_at) / RFU DDX43 (11728927_at) / Fold change /veh DDX43 (11728927_at) / RFU KRT8 (11758188_x_at) / Fold change /veh KRT8 (11758188_x_at) / RFU NKD1 (11759106_at) / Fold change /veh NKD1 (11759106_at) / RFU SRD5A1 (11742802_a_at) / Fold change /veh SRD5A1 (11742802_a_at) / RFU TPSAB1 /// TPSB2 (11721975_s_at) / Fold change /veh TPSAB1 /// TPSB2 (11721975_s_at) / RFU GSTM3 (11746129_a_at) / Fold change /veh GSTM3 (11746129_a_at) / RFU IL23R (11737362_x_at) / Fold change /veh IL23R (11737362_x_at) / RFU TMEM51 (11727254_a_at) / Fold change /veh TMEM51 (11727254_a_at) / RFU PIWIL2 (11732686_x_at) / Fold change /veh PIWIL2 (11732686_x_at) / RFU ORM1 (11744905_x_at) / Fold change /veh ORM1 (11744905_x_at) / RFU CCDC152 (11743942_at) / Fold change /veh CCDC152 (11743942_at) / RFU ECM1 (11717891_a_at) / Fold change /veh ECM1 (11717891_a_at) / RFU IL23R (11748794_a_at) / Fold change /veh IL23R (11748794_a_at) / RFU TNFAIP8L3 (11732012_x_at) / Fold change /veh TNFAIP8L3 (11732012_x_at) / RFU MBOAT4 (11741988_at) / Fold change /veh MBOAT4 (11741988_at) / RFU 11764193_at / Fold change /veh 11764193_at / RFU TMEM53 (11763286_at) / Fold change /veh TMEM53 (11763286_at) / RFU MAGEB2 (11727129_at) / Fold change /veh MAGEB2 (11727129_at) / RFU TMEM200A (11744735_a_at) / Fold change /veh TMEM200A (11744735_a_at) / RFU CCDC152 (11751479_a_at) / Fold change /veh CCDC152 (11751479_a_at) / RFU FAM211A (11726209_a_at) / Fold change /veh FAM211A (11726209_a_at) / RFU RGS16 (11746705_a_at) / Fold change /veh RGS16 (11746705_a_at) / RFU VCAN (11755009_s_at) / Fold change /veh VCAN (11755009_s_at) / RFU RHOB (11743442_s_at) / Fold change /veh RHOB (11743442_s_at) / RFU RGS16 (11720943_a_at) / Fold change /veh RGS16 (11720943_a_at) / RFU RGS16 (11720944_at) / Fold change /veh RGS16 (11720944_at) / RFU, VPS4B / Fold change vs veh, VPS4B / RFU, CREB1 / Fold change vs veh, CREB1 / RFU, DNAJC13 / Fold change vs veh, DNAJC13 / RFU, GNAQ / Fold change vs veh, GNAQ / RFU, CDK5R1 / Fold change vs veh, CDK5R1 / RFU, ZRANB3 / Fold change vs veh, ZRANB3 / RFU, CUL4A / Fold change vs veh, CUL4A / RFU, CCNY / Fold change vs veh, CCNY / RFU, UFL1 / Fold change vs veh, UFL1 / RFU, COG3 / Fold change vs veh, COG3 / RFU, DIAPH2 / Fold change vs veh, DIAPH2 / RFU, SKA2 / Fold change vs veh, SKA2 / RFU, AFF3 / Fold change vs veh, AFF3 / RFU, LMF1 / Fold change vs veh, LMF1 / RFU, IPO11 / Fold change vs veh, IPO11 / RFU, DFFB / Fold change vs veh, DFFB / RFU, FOXP1 / Fold change vs veh, FOXP1 / RFU, CARD8 / Fold change vs veh, CARD8 / RFU, STRN3 / Fold change vs veh, STRN3 / RFU, ADK / Fold change vs veh, ADK / RFU, RASSF2 / Fold change vs veh, RASSF2 / RFU, WIPF1 / Fold change vs veh, WIPF1 / RFU, LARP1B / Fold change vs veh, LARP1B / RFU, RASA1 / Fold change vs veh, RASA1 / RFU, RB1 / Fold change vs veh, RB1 / RFU, PPFIA1 / Fold change vs veh, PPFIA1 / RFU, MAT2A / Fold change vs veh, MAT2A / RFU, CCT5 / Fold change vs veh, CCT5 / RFU, WDR92 / Fold change vs veh, WDR92 / RFU, CUX1 / Fold change vs veh, CUX1 / RFU, TTC7A / Fold change vs veh, TTC7A / RFU, TMEM135 / Fold change vs veh, TMEM135 / RFU, DEPTOR / Fold change vs veh, DEPTOR / RFU, CPM / Fold change vs veh, CPM / RFU, DNAJB6 / Fold change vs veh, DNAJB6 / RFU, CACNA2D3 / Fold change vs veh, CACNA2D3 / RFU, DTX4 / Fold change vs veh, DTX4 / RFU, TFCP2 / Fold change vs veh, TFCP2 / RFU, GMCL1 /// GMCL1P1 / Fold change vs veh, GMCL1 /// GMCL1P1 / RFU, AEBP2 / Fold change vs veh, AEBP2 / RFU, SNHG1 /// SNORD22 /// SNORD25 /// SNORD26 /// SNORD27 /// SNORD28 /// SNORD29 /// SNORD31 / Fold change vs veh, SNHG1 /// SNORD22 /// SNORD25 /// SNORD26 /// SNORD27 /// SNORD28 /// SNORD29 /// SNORD31 / Fold change (Aza/veh), C12orf56 (ProbeSet 11735607_a_at) / Fold change (ACY-1035/veh), C12orf56 (ProbeSet 11735607_a_at) / Fold change (Aza/veh), FGFR1OP (ProbeSet 11751329_s_at) / Fold change (ACY-1035/veh), FGFR1OP (ProbeSet 11751329_s_at) / Fold change (Aza/veh), VPS36 (ProbeSet 11739960_a_at) / Fold change (ACY-1035/veh), VPS36 (ProbeSet 11739960_a_at) / RFU SYPL1 (11715823_x_at) / Fold change /veh SYPL1 (11715823_x_at) / RFU IGFBP7 (11715501_s_at) / Fold change /veh IGFBP7 (11715501_s_at) / RFU REEP3 (11722064_at) / Fold change /veh REEP3 (11722064_at) / RFU IGLL1 (11728026_x_at) / Fold change /veh IGLL1 (11728026_x_at): dose or concentration left out as unconfirmed
Settings: MV-4-11 cells, 48 hours

## Nc1ncn([C@@H]2O[C@H](CO)[C@@H](O)[C@H]2O)c(=O)n1 [azacitidine]
  Fold change /veh SYPL1 (11715823_x_at): 0.82
